Source: patent US20260325487A1 (BS BIOTECHNA SPOLKA AKCYJNA, priority 2023, published 2026)

Columns and labels:
Format in all cases: cell-based
NCI-H226 = assay: SRB anti-proliferative assay, NCI-H226, molecular combination and nanoparticles, with combination index (Example III); settings: Homo sapiens, NCI-H226, read-out: Zah. (inhibition of cell proliferation), NCI-H226, compound alone
Method: (§1) Cells were thawed from ampoules stored in liquid nitrogen and cultured in petri dishes in the appropriate culture medium according to Table 16, in a humidified 5% CO2 atmosphere at 37° C. Cells were passaged twice weekly using EDTA-Trypsin solution, pH 8, as a separating agent. Counted cells with a viability of at least 90% as assessed with Trypan-Blue solution were used for anti-proliferation assays.
(§2) Twenty-four hours before the addition of the test compounds/combinations, cells were seeded into 384-well plates at 50 μL/well and a density of 10^3 cells/well, in the appropriate culture medium. […] Solutions of the compounds were diluted in the test medium—RPMI-1640 and Opti-MEM in a 1:1 ratio, and the medium was supplemented with 2 mM glutamine and 5% fetal bovine serum FBS.
(§3) After 72 h, colourimetric assessment of cell growth was performed by SRB. […] Unbound dye was removed by washing the plates (4×) in 1% (v/v) acetic acid, and protein-bound dye was extracted with 10 mM unbuffered Tris base and the optical density (A=540 nm) was determined in a BioTek Synergy H4 Hybrid computer microplate reader (BioTek Instruments USA). The entire washing/staining procedure was performed using a BioTek EL406 washing station (BioTek Instruments USA). The raw absorbance results were analysed in Microsoft Excel software using the formula:
(§4) [formula] • Where: • % Zahlnh-inhibition of proliferation • Am—absorbance of wells without cells (medium) • Ak—absorbance of control wells (cells treated with pure culture medium) • Ap—absorbance of wells treated with compounds
(§5) Each compound at the indicated concentrations was tested in triplicate in one experiment. Each experiment was repeated three times. Data analysis was supplemented with synergy assessment using CalcuSyn software. […] A CI value below 0.8 indicates synergism, 0.8-1.2 an additive effect, above 1.2 an antagonism.

A172 = assay: SRB anti-proliferative assay, A172, molecular combination and nanoparticles, with combination index (Example III); settings: Homo sapiens, A 172, 72 h, read-out: Zah. (inhibition of proliferation)
Method: as §1, §2, §3, §4, §5

LN229 [1] = assay: SRB anti-proliferative assay, LN229, with CalcuSyn combination index (Example 1); settings: Homo sapiens, LN-229, 72 h, read-out: Zah. (inhibition of proliferation)
Method: as §1, with “in” for “in the”, “2,” for “16,”, “8.” for “8, as a separating agent.”, “anti-proliferative” for “anti-proliferation”
Twenty-four hours before the addition of the test compounds/combinations, cells were seeded into 384-well plates at 50 μL/well and a density of 10^3 cells/well, in the appropriate culture medium.
as §3, with “Solutions of the compounds were diluted in the test medium-RPMI-1640 and Opti-MEM in a 1:1 ratio, and the medium was supplemented with 2 mM glutamine and 5% fetal bovine serum FBS. After” for “After”
as §4, §5

LN229 [2] = assay: SRB anti-proliferative assay, LN229, molecular combination and nanoparticles, with combination index (Example III); settings: Homo sapiens
Method: as §1, §2, §3, §4, §5

[3] = LN-229, 72 h, read-out: Zah. (inhibition of proliferation)
[4] = LN-229, read-out: Zah. (inhibition of cell proliferation)

`C=CCNC1=C2C[C@@H](C)C[C@H](OC)[C@H](O)[C@@H](C)/C=C(\C)[C@H](OC(N)=O)[C@@H](OC)/C=C\C=C(/C)C(=O)NC(=CC1=O)C2=O` [17AAG, 17-AAG (tanespimycin)] gave an inhibition at 0.0032 µM (NCI-H226; 3.2 nM) of -6.6%, an inhibition at 0.01 µM (NCI-H226; 10 nM) of -4.6% and an inhibition at 0.0316 µM (NCI-H226; 31.6 nM) of 30.6%. The inhibition at 0.1 µM (NCI-H226; 100 nM) was 44.7%, the inhibition at 0.3163 µM (NCI-H226; 316.3 nM) was 49.3% and the inhibition at 1 µM (NCI-H226; 1000 nM) was 59%. For the same compound, the inhibition at 3.1625 µM (NCI-H226; 3162.5 nM) was 63.5%, the inhibition at 10.0005 µM (NCI-H226; 10000.5 nM) was 61.4% and the inhibition at 0.0003163 µM (A172) was 6%. For the same compound, the inhibition at 0.001 µM (A172) was 15.7%, the inhibition at 0.0032 µM (A172) was 4.7% and the inhibition at 0.01 µM (A172) was 7.8%. The inhibition at 0.0316 µM (A172) was 20.1%, the inhibition at 0.1 µM (A172) was 37.4% and the inhibition at 0.3163 µM (A172) was 64.6%. The inhibition at 1 µM (A172) was 81.1%, the inhibition at 0.0032 µM (LN229 [1]) was 3.3% and the inhibition at 0.01 µM (LN229 [1]) was 3.1%. The inhibition at 0.0316 µM (LN229 [1]) was 18.4%, the inhibition at 0.1 µM (LN229 [1]) was 28.9% and the inhibition at 0.3163 µM (LN229 [1]) was 38.7%. For the same compound, the inhibition at 1 µM (LN229 [1]) was 62.9%, the inhibition at 3.1625 µM (LN229 [1]) was 71.6% and the inhibition at 10.0005 µM (LN229 [1]) was 81.5%. The inhibition at 0.0032 µM (LN229 [2]; [3]) was 3.3%, the inhibition at 0.01 µM (LN229 [2]; [3]) was 3.1% and the inhibition at 0.0316 µM (LN229 [2]; [3]) was 18.4%. The inhibition at 0.1 µM (LN229 [2]; [3]) was 28.9%, the inhibition at 0.3163 µM (LN229 [2]; [3]) was 38.7% and the inhibition at 1 µM (LN229 [2]; [3]) was 62.9%. It also gave an inhibition at 3.1625 µM (LN229 [2]; [3]) of 71.6%, an inhibition at 10.0005 µM (LN229 [2]; [3]) of 81.5% and an inhibition at 0.0032 µM (LN229 [2]; [4]) of 3.3%. For the same compound, the inhibition at 0.01 µM (LN229 [2]; [4]) was 3.1%, the inhibition at 0.0316 µM (LN229 [2]; [4]) was 18.4% and the inhibition at 0.1 µM (LN229 [2]; [4]) was 28.9%. For the same compound, the inhibition at 0.3163 µM (LN229 [2]; [4]) was 38.7%, the inhibition at 1 µM (LN229 [2]; [4]) was 62.9% and the inhibition at 3.1625 µM (LN229 [2]; [4]) was 71.6%. For the same compound, the inhibition at 10.0005 µM (LN229 [2]; [4]) was 81.5%.
